The nature of this series: recombinant barcode read abundance after kanamycin selection (control-corrected) (log10(CPM+1)); higher = more efficient recombination; sequences stand for … in AGTGCAGAGAAAATCGGCCAGTTTTCTCTGCCTGCAGTCCGCATGCCGT…AGATTTATGCAGCGGACTGCCTTTCTCCCAAAGTGATAAACCGGACAGTATCATGGACCGGTTTTCCCGGTAATCCGTATTTGCAAGGTTGGTTTCACT; site = the 11-nt target. The method, boiled down: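 Reported as log10(CPM+1), each value stands for recombination efficiency. That efficiency is the averaged, control-corrected counts per million of barcodes found at recombinant junctions. Cells from a pooled E. coli library pairing targets with IS621 bridge RNA target-binding loops were plated twice on chloramphenicol/ampicillin LB agar (control) and twice on chloramphenicol/ampicillin/kanamycin with 0.1 mM IPTG.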
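Note: IS621 recombinase and bridge RNA in Escherichia coli cells.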

In the case of “GTTCCTACTTGGGTTCTAACCTGTTGCCT (site GTTCCTACTAG)”, the “recombinant barcode read abundance (log10)” value is 0.328.

Regarding “GTTGCCACTTGGGTTCTAACCTGTTGCCT (site GTAGCCACTAG)”, the “recombinant barcode read abundance (log10)” value came out at 0.137.

For “GTTGCCACTTGGGTTCTAACCTGTTGCCT (site GTCGCCACTAG)”, the “recombinant barcode read abundance (log10)” value was 0.0124.

Regarding “GTTGCCACTTGGGTTCTAACCTGTTGCCT (site GTGGCCACTAG)”, the “recombinant barcode read abundance (log10)” value worked out at 0.0918.

For the sequence “GTTGCCACTTGGGTTCTAACCTGTTGCCT (site GTTGCCACTAG)”, the “recombinant barcode read abundance (log10)” value was found to be 0.411.

As to “GTTGGAACTTGGGTTCTAACCTGTTGCGT (site GTTGGAACTAC)”, the “recombinant barcode read abundance (log10)” value was 2.05.

Take “GTTGGAACTTGGGTTCTAACCTGTTGCGT (site GTTGGGACTAG)”: the “recombinant barcode read abundance (log10)” value was determined as 0.312.

“GTTGGCGCTTGGGTTCTAACCTGTTGCCT (site GTAGGCGCTAG)”: the “recombinant barcode read abundance (log10)” value worked out at 0.276.

“GTTGGCGCTTGGGTTCTAACCTGTTGCCT (site GTCGGCGCTAG)”: the “recombinant barcode read abundance (log10)” value stood at 0.125.

For the sequence “GTTGGCGCTTGGGTTCTAACCTGTTGCCT (site GTGGGCGCTAG)”, the “recombinant barcode read abundance (log10)” value worked out at 0.0363.

With “GTTGGCGCTTGGGTTCTAACCTGTTGCCT (site GTTGGCGCTAG)”, the “recombinant barcode read abundance (log10)” value was found to be 0.841.

Consider “GTTGGGGCTTGGGTTCTAACCTGTTGCCT (site GTGGTGGCTAG)”, for which the “recombinant barcode read abundance (log10)” value is 0.254.

Turning to “GTTGGGGCTTGGGTTCTAACCTGTTGCCT (site GTTGGGGCTAG)”, the “recombinant barcode read abundance (log10)” value stood at 0.634.

On to “GTTTAATCTTGGGTTCTAACCTGTTGCAT (site GTTTAATCTAT)”, for which the “recombinant barcode read abundance (log10)” value is 0.343.

Take “GTTTAATCTTGGGTTCTAACCTGTTGCAT (site TGGGTCACTTA)”: the “recombinant barcode read abundance (log10)” value turned out to be 0.0197.

As to “GTTTGGACTTGGGTTCTAACCTGTTGCAG (site GCTTGGACTAT)”, the “recombinant barcode read abundance (log10)” value came out at 0.153.

Turning to “GTTTGGACTTGGGTTCTAACCTGTTGCAG (site GTTTGGACTCT)”, the “recombinant barcode read abundance (log10)” value is 1.11.

Take “GTTTGGACTTGGGTTCTAACCTGTTGCTG (site GTTTGGACTCA)”: the “recombinant barcode read abundance (log10)” value amounted to 1.06.

In the case of “GTTTGGACTTGGGTTCTAACCTGTTGCTG (site GTTTGGACTTA)”, the “recombinant barcode read abundance (log10)” value was 0.195.

Take “TAAAAGACTTGGGTTCTAACCTGTTGCCT (site TAAAAGACTAG)”: the “recombinant barcode read abundance (log10)” value is 0.307.

As to “TAAAAGACTTGGGTTCTAACCTGTTGCCT (site TAAAAGCCTAG)”, the “recombinant barcode read abundance (log10)” value came to 0.0498.

As to “TAAAAGACTTGGGTTCTAACCTGTTGCCT (site TAAAAGGCTAG)”, the “recombinant barcode read abundance (log10)” value worked out at 0.311.

In the case of “TAAAAGACTTGGGTTCTAACCTGTTGCCT (site TAAAAGTCTAG)”, the “recombinant barcode read abundance (log10)” value worked out at 0.178.

Consider “TAAAAGTCTTGGGTTCTAACCTGTTGCCT (site TAAAAGACTAG)”, for which the “recombinant barcode read abundance (log10)” value was determined as 0.108.

“TAAAAGTCTTGGGTTCTAACCTGTTGCCT (site TAAAAGCCTAG)”: the “recombinant barcode read abundance (log10)” value is 0.0186.

With “TAAAAGTCTTGGGTTCTAACCTGTTGCCT (site TAAAAGGCTAG)”, the “recombinant barcode read abundance (log10)” value amounted to 0.0795.

With “TAAAAGTCTTGGGTTCTAACCTGTTGCCT (site TAAAAGTCTAG)”, the “recombinant barcode read abundance (log10)” value came out at 0.696.

As to “TAAAGTACTTGGGTTCTAACCTGTTGCTT (site TAAAGTACTAA)”, the “recombinant barcode read abundance (log10)” value was 0.467.

In the case of “TAAAGTACTTGGGTTCTAACCTGTTGCTT (site TAACGTACTAA)”, the “recombinant barcode read abundance (log10)” value came to 0.0583.

Consider “TAAAGTACTTGGGTTCTAACCTGTTGCTT (site TAAGGTACTAA)”, for which the “recombinant barcode read abundance (log10)” value turned out to be 0.017.

As for “TAAAGTACTTGGGTTCTAACCTGTTGCTT (site TAATGTACTAA)”, the “recombinant barcode read abundance (log10)” value was 0.0546.

For the sequence “TAACACTCTTGGGTTCTAACCTGTTGCCT (site TAACACTCTAG)”, the “recombinant barcode read abundance (log10)” value is 2.

As to “TAACACTCTTGGGTTCTAACCTGTTGCCT (site TCACAGTCTAG)”, the “recombinant barcode read abundance (log10)” value was 0.19.

Turning to “TAACAGTCTTGGGTTCTAACCTGTTGCGT (site TAACAGTCTAC)”, the “recombinant barcode read abundance (log10)” value turned out to be 2.85.

As to “TAACAGTCTTGGGTTCTAACCTGTTGCGT (site TAACCGTCTAT)”, the “recombinant barcode read abundance (log10)” value came to 0.246.

With “TAACCGTCTTGGGTTCTAACCTGTTGCAT (site TAACAGTCTAC)”, the “recombinant barcode read abundance (log10)” value is 0.179.

Regarding “TAACCGTCTTGGGTTCTAACCTGTTGCAT (site TAACCGTCTAT)”, the “recombinant barcode read abundance (log10)” value came to 0.286.

Regarding “TAACCTACTTGGGTTCTAACCTGTTGCCT (site TAACCTACTAG)”, the “recombinant barcode read abundance (log10)” value came out at 0.442.

As for “TAACCTACTTGGGTTCTAACCTGTTGCCT (site TAACCTCCTAG)”, the “recombinant barcode read abundance (log10)” value is 0.055.

For the sequence “TAACCTACTTGGGTTCTAACCTGTTGCCT (site TAACCTGCTAG)”, the “recombinant barcode read abundance (log10)” value came to 0.0455.

Turning to “TAACCTACTTGGGTTCTAACCTGTTGCCT (site TAACCTTCTAG)”, the “recombinant barcode read abundance (log10)” value is 0.0774.

With “TAACCTACTTGGGTTCTAACCTGTTGCTA (site GGTGAGGCTAT)”, the “recombinant barcode read abundance (log10)” value came out at 0.0991.

Take “TAACCTACTTGGGTTCTAACCTGTTGCTA (site TAACCTACTTA)”: the “recombinant barcode read abundance (log10)” value was 0.864.

In the case of “TAACCTCCTTGGGTTCTAACCTGTTGCCT (site TAACCTACTAG)”, the “recombinant barcode read abundance (log10)” value was 0.0181.

Take “TAACCTCCTTGGGTTCTAACCTGTTGCCT (site TAACCTCCTAG)”: the “recombinant barcode read abundance (log10)” value is 0.444.

With “TAACCTCCTTGGGTTCTAACCTGTTGCCT (site TAACCTGCTAG)”, the “recombinant barcode read abundance (log10)” value is 0.0867.

For “TAACCTCCTTGGGTTCTAACCTGTTGCCT (site TAACCTTCTAG)”, the “recombinant barcode read abundance (log10)” value is 0.127.

As for “TAACGACCTTGGGTTCTAACCTGTTGCCT (site AAACGACCTAG)”, the “recombinant barcode read abundance (log10)” value was 0.

Consider “TAACGACCTTGGGTTCTAACCTGTTGCCT (site CAACGACCTAG)”, for which the “recombinant barcode read abundance (log10)” value amounted to 0.055.

For “TAACGACCTTGGGTTCTAACCTGTTGCCT (site GAACGACCTAG)”, the “recombinant barcode read abundance (log10)” value is 0.0956.

Consider “TAACGACCTTGGGTTCTAACCTGTTGCCT (site TAACGACCTAG)”, for which the “recombinant barcode read abundance (log10)” value was found to be 1.42.

Consider “TAACGGCCTTGGGTTCTAACCTGTTGCCT (site TAACGGCCTAG)”, for which the “recombinant barcode read abundance (log10)” value was determined as 0.539.

In the case of “TAACGGCCTTGGGTTCTAACCTGTTGCCT (site TACCGGCCTAG)”, the “recombinant barcode read abundance (log10)” value was 0.504.

Regarding “TAACGGCCTTGGGTTCTAACCTGTTGCCT (site TAGCGGCCTAG)”, the “recombinant barcode read abundance (log10)” value turned out to be 0.198.

On to “TAACGGCCTTGGGTTCTAACCTGTTGCCT (site TATCGGCCTAG)”, for which the “recombinant barcode read abundance (log10)” value was 0.0776.

Take “TAACGTCCTTGGGTTCTAACCTGTTGCGT (site TAACGTACTCC)”: the “recombinant barcode read abundance (log10)” value amounted to 0.0665.

On to “TAACGTCCTTGGGTTCTAACCTGTTGCGT (site TAACGTCCTAC)”, for which the “recombinant barcode read abundance (log10)” value was 1.4.

With “TAACGTTCTTGGGTTCTAACCTGTTGCCT (site TAACGTTCTAG)”, the “recombinant barcode read abundance (log10)” value was 0.385.

For “TAACGTTCTTGGGTTCTAACCTGTTGCCT (site TACCGTTCTAG)”, the “recombinant barcode read abundance (log10)” value stood at 0.0273.

For the sequence “TAAGATCCTTGGGTTCTAACCTGTTGCCT (site TAAGATCCTAG)”, the “recombinant barcode read abundance (log10)” value stood at 1.63.

Consider “TAAGATCCTTGGGTTCTAACCTGTTGCCT (site TAGGCTCCTAG)”, for which the “recombinant barcode read abundance (log10)” value stood at 0.0611.

On to “TAAGCTACTTGGGTTCTAACCTGTTGCTG (site TAAGCCTCTCA)”, for which the “recombinant barcode read abundance (log10)” value was determined as 0.0237.

For the sequence “TAAGCTACTTGGGTTCTAACCTGTTGCTG (site TAAGCTACTCA)”, the “recombinant barcode read abundance (log10)” value stood at 0.885.

As to “TACAATTCTTGGGTTCTAACCTGTTGCAT (site GGGCTCCCTCG)”, the “recombinant barcode read abundance (log10)” value is 0.0564.

On to “TACAATTCTTGGGTTCTAACCTGTTGCAT (site TACAATTCTAT)”, for which the “recombinant barcode read abundance (log10)” value was determined as 0.03.

Take “TACAGCCCTTGGGTTCTAACCTGTTGCCT (site TACAGCCCTAG)”: the “recombinant barcode read abundance (log10)” value came to 0.932.

On to “TACAGCCCTTGGGTTCTAACCTGTTGCCT (site TTCAGCCCTAG)”, for which the “recombinant barcode read abundance (log10)” value came out at 0.183.

For the sequence “TACAGTACTTGGGTTCTAACCTGTTGCCT (site AACAGTACTAG)”, the “recombinant barcode read abundance (log10)” value is 0.0317.

For the sequence “TACAGTACTTGGGTTCTAACCTGTTGCCT (site CACAGTACTAG)”, the “recombinant barcode read abundance (log10)” value worked out at 0.326.

For “TACAGTACTTGGGTTCTAACCTGTTGCCT (site GACAGTACTAG)”, the “recombinant barcode read abundance (log10)” value was 0.325.

In the case of “TACAGTACTTGGGTTCTAACCTGTTGCCT (site TACAGTACTAG)”, the “recombinant barcode read abundance (log10)” value was 0.291.

For the sequence “TACATCCCTTGGGTTCTAACCTGTTGCCG (site TACATCCCTAG)”, the “recombinant barcode read abundance (log10)” value is 0.0934.

Turning to “TACATCCCTTGGGTTCTAACCTGTTGCCG (site TACATCCCTCG)”, the “recombinant barcode read abundance (log10)” value came out at 0.623.

As for “TACATCCCTTGGGTTCTAACCTGTTGCCG (site TACATCCCTGG)”, the “recombinant barcode read abundance (log10)” value amounted to 0.0502.

On to “TACATCCCTTGGGTTCTAACCTGTTGCCG (site TACATCCCTTG)”, for which the “recombinant barcode read abundance (log10)” value was determined as 0.0738.

“TACCAGACTTGGGTTCTAACCTGTTGCCT (site TACCAGACTAG)”: the “recombinant barcode read abundance (log10)” value was found to be 1.26.

As for “TACCAGACTTGGGTTCTAACCTGTTGCCT (site TACCCGACTAG)”, the “recombinant barcode read abundance (log10)” value amounted to 0.033.

The values above are taken from the supplement of paper PMC11208160.
